Where “and” joins values, the source holds several entries; their conditions need not be identical. Equal entries are not always repeated. Entries after “also recorded” stand apart in the source; their conditions may differ.
Assays:
[1] = tested on: tracheal secretion of phenol red in mice; assay: Tracheal secretion of phenol red in male mice (Engler and Szelenyi method); assay type: in vivo; conditions: for ED50: Mus musculus, po, 0.5 h, read-out: ED50 (dose stimulating tracheal secretion of phenol red by 50% over the control); for ED50 / effect on tracheal secretion of phenol red, dose dependence / ED50 (dose stimulating tracheal secretion of phenol red by 50% over the control): 30 minutes; for ED50 / ED50 (dose stimulating tracheal secretion of phenol red by 50% over the control): male mice; for Phenol Red Secretion, Treated: 30 min before phenol red i.p., * P<0.05 vs control; for Phenol Red Secretion, Treated / % Change in phenol red secretion: mean ± SFM; for % Change in phenol red secretion: vs control
From the text: Adult male mice weighing 14-40 g were used in this investigation. Animals were acclimatized to the laboratory environment for a minimum of five days prior to use in the experimental procedures. Housing was provided in environmentally controlled quarters in which temperature, humidity and ventilation were regulated based on the needs of the species. Husbandry practices and veterinary care were in accordance with the Guide for Care and Use of Laboratory Animals (NIH Publication No. 85-23). Tracheal secretion in mice, expressed by the amount of phenol red dye secreted into the lumen of the trachea was measured according to the method of Engler and Szelenyi. Male mice were randomly placed into appropriate treatment groups. On each experiment day, one to four mice in a group received orally either vehicle (distilled water or 1% acacia, 0.1 mL/10 g body weight) or a drug. Each drug was tested at a minimum of three different dose levels. Each drug dosage was tested in at least six animals. Drugs were administered orally (0.1 mL/10 g body weight) 30 minutes prior to intraperitoneal injection of phenol red (500 mg/kg: 5% solution in physiological saline, 0.1 mL/10 g body weight). Thirty minutes after phenol red injection the animals were sacrificed by exposure to CO2. The whole trachea was carefully excised and washed in 1.0 mL physiological saline for a period of 30 minutes. Subsequently, 0.1 mL of 1 M NaOH was added to the tracheal washings to stabilize the pH of the lavage fluid. The amount of phenol red was measured photometrically at […] in a Beckman Model 25 spectrophotometer. The amount of phenol red secreted in the tracheal lumen, expressed in μg/10 g body weight/hr, was determined by the formula of Graziani and Cazzulani: [formula] where: S=phenol red secreted per 10 g of body weight per hour (μg/10 g/hr). s=intensity of emission of the phenol red contained in 1.0 mL of tracheal lavage as determined from the standard curve of phenol red (0.5, 1, 5, and 10 μg/mL). V=volume of the tracheal lavage (1.0 mL). W=body weight of the mice expressed in grams. The results were expressed as mean ±S.F.M. Statistical significance was evaluated using the t-test for independent means, where P<0.05 is considered to be significant as compared to the appropriate control. The % increase in tracheal secretion of phenol red by each dose of a drug was determined by using the following formula: [formula] T=tracheal secretion of phenol red (μg/10 g/hr) in treated mice each day. C=tracheal secretion of phenol red (μg/10 g/hr) in untreated mice each day. The line of best fit was calculated from the dose response curve of each drug and the ED50 (mg/kg), i.e. the dose stimulating tracheal secretion of phenol red by 50% over the control level, was determined and 95% confidence limits were also calculated.

[2] = tested on: tracheal secretion in mice; conditions: cited from earlier work
[3] = tested on: mechanical or electrical stimulation in the cat; conditions: cited from earlier work
[4] = tested on: citric acid (aerosol)-induced coughing responses in guinea pigs; conditions: cited from earlier work

Row | Structure (SMILES) | ED50 ([1]; p.o.) [mg/kg] | Phenol Red Secretion, Treated ([1]; oral dose 0.3 mg/kg) [μg/10 g/hr] | % Change in phenol red secretion ([1]; oral dose 0.3 mg/kg) [%] | Phenol Red Secretion, Treated ([1]; oral dose 1.0 mg/kg) [μg/10 g/hr] | % Change in phenol red secretion ([1]; oral dose 1.0 mg/kg) [%] | stimulation of tracheal secretion of phenol red ([1]; oral, mice) | effect on tracheal secretion of phenol red, dose dependence ([1]; p.o., mice) | oral ED50 reported earlier by others [2] | Phenol Red Secretion, Treated ([1]; oral dose 10.0 mg/kg) [μg/10 g/hr] | % Change in phenol red secretion ([1]; oral dose 10.0 mg/kg) [%] | Phenol Red Secretion, Treated ([1]; oral dose 50.0 mg/kg) [μg/10 g/hr] | % Change in phenol red secretion ([1]; oral dose 50.0 mg/kg) [%] | Phenol Red Secretion, Treated ([1]; oral dose 200.0 mg/kg) [μg/10 g/hr] | % Change in phenol red secretion ([1]; oral dose 200.0 mg/kg) [%] | Phenol Red Secretion, Treated ([1]; oral dose 30.0 mg/kg) [μg/10 g/hr] | % Change in phenol red secretion ([1]; oral dose 30.0 mg/kg) [%] | Phenol Red Secretion, Treated ([1]; oral dose 100.0 mg/kg) [μg/10 g/hr] | % Change in phenol red secretion ([1]; oral dose 100.0 mg/kg) [%] | also measured
1 | CC(C)(C)NCC(O)c1ccc(O)c(CO)c1 (stereo not drawn) [Albuterol] | 0.18 | 1.30 ± 0.16 | 78.4 ± 22.9 | 1.60 ± 0.09 | 118.6 ± 11.6 | stimulated tracheal secretion of phenol red | dose-dependent increase | about 4 mg/kg |  |  |  |  |  |  |  |  |  |  | Phenol Red Secretion, Treated ([1]; oral dose 0.1 mg/kg): 0.85 ± 0.08 μg/10 g/hr; % Change in phenol red secretion ([1]; oral dose 0.1 mg/kg): 20.5 ± 10.6%
2 | CC(=O)N[C@@H](CS)C(=O)O [N-acetylcysteine] | 61.8 |  |  |  |  |  | dose-dependent increase |  | 0.66 ± 0.06 | 2.3 ± 13.2 | 1.00 ± 0.08 | 51.6 ± 10.6 | 1.30 ± 0.12 | 75.7 ± 1.5 |  |  |  |  | 
3 | CN(Cc1cc(Br)cc(Br)c1N)C1CCCCC1 [Bromhexine] | > 100 |  |  |  |  |  | weak to moderate nondose-related effect |  |  |  |  |  |  |  | 0.67 ± 0.10 | 0 ± 0 | 0.90 ± 0.10 | 40.6 ± 17.0 | significant increase in phenol red tracheal secretion ([1]; 3 or 30 mg/kg, p.o.): not at 3 or 30 mg/kg; increase in phenol red tracheal secretion ([1]; only at 100 mg/kg, p.o.): significant increase; Phenol Red Secretion, Treated ([1]; oral dose 3.0 mg/kg): 1.20 ± 0.13 μg/10 g/hr; % Change in phenol red secretion ([1]; oral dose 3.0 mg/kg): 20.9 ± 12.9%; bronchosecretogogue activity reported by others ([2]; 40 mg/kg, p.o., mice): little or no bronchosecretogogue activity
4 | OCC(O)CI (stereo not drawn) [3-iodo-1,2-propanediol] | 0.75 | 1.02 ± 0.06 | 37.5 ± 8.01 | 1.16 ± 0.13 | 56.55 ± 17.83 | stimulates tracheal secretion of phenol red; also recorded: effective in stimulating tracheal secretion of phenol red | dose-dependent increase; also recorded: dose-dependent stimulation |  | 1.32 ± 0.16 | 77.36 ± 21.67 |  |  |  |  | 1.56 ± 0.23 | 110.45 ± 31.5 |  |  | effectiveness relative to iodinated glycerol in stimulating tracheal secretion of phenol red ([1]; oral, mice, times as effective as iodinated glycerol): about 90 times; antitussive effect [3]: antitussive effect; antitussive effect [4]: antitussive effect
5 | [I-].[K+] [Potassium Iodide, potassium iodide] |  |  |  |  |  | stimulated tracheal secretion of phenol red | dose-dependent increase | ~4000 mg/kg |  |  | 0.67 ± 0.07 | 5.1 ± 11.2 | 0.96 ± 0.10 | 49.1 ± 12.2 |  |  | 1.47 ± 0.15 | 45.8 ± 14.2 | ED50 (dose stimulating tracheal secretion of phenol red by 50% over the control) ([1]; p.o.): ~ 200 mg/kg; ED50 (dose stimulating tracheal secretion of phenol red by 50% over the control) ([1]; p.o., listed as potassium iodide): ~ 200 mg/kg and 200 mg/kg
